Data reported in patent publication US8119681B2, “2-[1-phenyl-5-hydroxy or methoxy-4alpha-methyl-hexahydrocyclopenta [ƒ]indazole-5-YL]ethyl phenyl derivatives as glucocorticoid receptor ligands” (Merck Sharp & Dohme Corp., priority 2006, dated 2012).

Each compound was assayed against T1, glucocorticoid receptor (GR) (Homo sapiens, UniProt P04150) (assay: Ligand binding assay (GR BIND), 3H-dexamethasone displacement, HeLa cell lysate). Conditions: Table 1; HeLa cell lysate, 3H-DEX.
T1 construct: endogenous in cells; host or cells: HeLa (ATCC) cell lysate supernatant
T1 sequence (P04150 1-777): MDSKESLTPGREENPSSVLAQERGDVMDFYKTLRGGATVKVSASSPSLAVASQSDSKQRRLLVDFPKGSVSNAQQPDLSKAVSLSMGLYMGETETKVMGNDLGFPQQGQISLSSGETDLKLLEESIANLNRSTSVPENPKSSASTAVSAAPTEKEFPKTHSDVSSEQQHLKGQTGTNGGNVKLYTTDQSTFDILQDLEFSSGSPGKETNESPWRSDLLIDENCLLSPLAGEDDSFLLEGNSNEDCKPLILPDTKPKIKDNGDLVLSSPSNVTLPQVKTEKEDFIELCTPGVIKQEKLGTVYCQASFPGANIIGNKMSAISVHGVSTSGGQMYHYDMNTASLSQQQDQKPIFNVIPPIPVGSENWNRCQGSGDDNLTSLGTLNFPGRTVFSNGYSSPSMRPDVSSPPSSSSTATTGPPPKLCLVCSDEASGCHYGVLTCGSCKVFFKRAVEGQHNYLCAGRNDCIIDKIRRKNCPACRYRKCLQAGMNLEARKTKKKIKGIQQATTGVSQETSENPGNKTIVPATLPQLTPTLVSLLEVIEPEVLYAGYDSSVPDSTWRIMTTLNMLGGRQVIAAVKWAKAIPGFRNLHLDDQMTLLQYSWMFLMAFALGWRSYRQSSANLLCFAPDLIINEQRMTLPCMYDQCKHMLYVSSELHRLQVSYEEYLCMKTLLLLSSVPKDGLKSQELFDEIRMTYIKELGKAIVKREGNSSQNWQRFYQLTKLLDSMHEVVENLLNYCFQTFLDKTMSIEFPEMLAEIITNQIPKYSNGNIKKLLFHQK
Procedure: Binding Buffer: TEGM (10 mM Tris-HCl, 1 mM EDTA, 10% glycerol, 1 mM beta-mercaptoethanol, 10 mM Sodium Molybdate, pH 7.2)
50% HAP Slurry: Calbiochem Hydroxylapatite, Fast Flow, in 10 mM Tris, pH 8.0 and 1 mM EDTA.
Wash Buffer: 40 mM Tris, pH7.5, 100 mM KCl, 1 mM EDTA and 1 mM EGTA.
Dexmethasone-methyl-^3H, (DEX*); (Amersham cat# TRK645)
Dexamethasone (DEX) (Sigma, cat# D1756):
Phenol red-free Trypsin-EDTA is diluted in the same PBS 1:10. The cell layers are rinsed with 1× Trypsin, extra Trypsin is poured out, and the cell layers are incubated at 37° C. for ˜2 min. The flask is tapped and checked for signs of cell detachment. Once the cells begin to slide off the flask, the complete media is added. The cells are counted at this point, then diluted to the appropriate concentration and split into flasks or dishes for further culturing (Usually 1:3 to 1:6 dilution).
Preparation of Hela Cell Lysate
The cell pellet is washed twice with TEGM (10 mM Tris-HCl, 1 mM EDTA, 10% glycerol, 1 mM beta-mercaptoethanol, 10 mM Sodium Molybdate, pH 7.2). After the final wash, the cells are resuspended in TEGM at a concentration of 10^7 cells/mL. The cell suspension is snap frozen in liquid nitrogen or ethanol/dry ice bath and transferred to −80° C. freezer on dry ice. Before setting up the binding assay, the frozen samples are left on ice-water to just thaw (˜1 hr). Then the samples are centrifuged at 12,500 g to 20,000 g for 30 min at 4° C. The supernatant is used to set-up assay right away. If using 50 μL of supernatant, the test compound can be prepared in 50 μL of the TEGM buffer.
Procedure for Multiple Compound Screening
1×TEGM buffer is prepared, and the isotope-containing assay mixture is prepared in the following order: EtOH (2% final concentration in reaction), 3H-DEX (Amersham Biosciences) and 1×TEGM. [e.g. For 100 samples, 200 μL (100×2) of EtOH+4.25 μL of 1:10 ^3H-Dex stock+2300 μL (100×23) 1×TEGM]. The compound is serially diluted, e.g., if starting final conc. is 1 μM, and the compound is in 25 μL of solution, for duplicate samples, 75 μL of 4×1 μM solution is made and 3 μL of 100 μM is added to 72 μL of buffer, and 1:5 serial dilution.
25 μL of ^3H-DEX (6 nM) trace and 25 μL compound solution are first mixed together, followed by addition of 50 μL receptor solution. The reaction is gently mixed, spun briefly at about 200 rpm and incubated at 4° C. overnight. 100 μL of 50% HAP slurry is prepared and added to the incubated reaction which is then vortexed and incubated on ice for 5 to 10 minutes. The reaction mixture is vortexed twice more to resuspend HAP while incubating reaction. The samples in 96-well format are then washed in wash buffer using The FilterMate™ Universal Harvester plate washer (Packard). The washing process transfers HAP pellet containing ligand-bound expressed receptor to Unifilter-96 GF/B filter plate (Packard). The HAP pellet on the filter plate is incubated with 50 μL of MICROSCINT (Packard) scintillant for 30 minutes before being counted on the TopCount microscintillation counter (Packard). IC50s are calculated using DEX as a reference.
In the case of C[C@]12Cc3cnn(-c4ccc(F)cc4)c3C=C1CC[C@@]2(O)CCc1ccccc1C(=O)NCC1CC1 [Example 37, N-(cyclopropylmethyl)-2-{2-[(4αS,5R)-1-(4-fluorophenyl)-5-hydroxy-4α-methyl-1,4,4α,5,6,7-hexahydrocyclopenta[r]indazol-5-yl]ethyl}benzamide], the Ki is reported as 440 pM.
Work on CC(CNC(=O)c1c(F)cccc1CC[C@]1(O)CCC2=Cc3c(cnn3-c3ccc(F)cc3)C[C@@]21C)C(F)(F)F (stereo partly drawn) [Example 38, 2-fluoro-6-{2-[(4αS,5R)-1-(4-fluorophenyl)-5-hydroxy-4α-methyl-1,4,4α,5,6,7-hexahydrocyclopenta[f]indazol-5-yl]ethyl}-N-(3,3,3-trifluoro-2-methylpropyl)benzamide] yielded a Ki of 430 pM.
C[C@]12Cc3cnn(-c4ccc(F)cc4)c3C=C1CC[C@@]2(O)CCc1ccccc1C(=O)N1CCC1 [Example 40, (4αS,5R)-5-{2-[2-(azetidin-1-ylcarbonyl)phenyl]ethyl}-1-(4-fluorophenyl)-4α-methyl-1,4,4α,5,6,7-hexahydrocyclopenta[f]indazol-5-ol] was tested, and the Ki was 6140 pM.
COC(=O)C(C)(C)NC(=O)c1c(F)cccc1CC[C@]1(O)CCC2=Cc3c(cnn3-c3ccc(F)cc3)C[C@@]21C [Example 41, methyl N-(2-fluoro-6-{2-[(4αS,5R)-1-(4-fluorophenyl)-5-hydroxy-4α-methyl-1,4,4α,5,6,7-hexahydrocyclopenta[f]indazol-5-yl]ethyl}benzoyl)-2-methylalaninate] was tested, and the Ki was 830 pM.
In the case of C[C@]12Cc3cnn(-c4ccccc4)c3C=C1CC[C@@]2(O)CCc1ccccc1C(=O)NC1CC1 [Example 42, N-cyclopropyl-2-{2-[(4αS,5R)-5-hydroxy-4α-methyl-1-phenyl-1,4,4α,5,6,7-hexahydrocyclopenta[f]indazol-5-yl]ethyl}benzamide], the Ki is reported as 2790 pM.
Work on C[C@]12Cc3cnn(-c4ccccc4)c3C=C1CC[C@@]2(O)CCc1ccccc1C(N)=O [Example 43, 2-{2-[(4αS,5R)-5-hydroxy-4α-methyl-1-phenyl-1,4,4α,5,6,7-hexahydrocyclopenta[f]indazol-5-yl]ethyl}benzamide] yielded a Ki of 5160 pM.
C=C(C)CNC(=O)c1c(F)cccc1CC[C@]1(O)CCC2=Cc3c(cnn3-c3ccc(F)cc3)C[C@@]21C [Example 44, 2-fluoro-6-{2-[(4αS,5R)-1-(4-fluorophenyl)-5-hydroxy-4α-methyl-1,4,4α,5,6,7-hexahydrocyclopenta[f]indazol-5-yl]ethyl}-N-(2-methylprop-2-en-1-yl)benzamide] showed a Ki of 600 pM.
With C[C@H](CNC(=O)c1ccccc1CC[C@]1(O)CCC2=Cc3c(cnn3-c3ccc(F)cc3)C[C@@]21C)C(F)(F)F [Example 45, 2-{2-[(4αS,5R)-1-(4-fluorophenyl)-5-hydroxy-4α-methyl-1,4,4α,5,6,7-hexahydrocyclopenta[f]indazol-5-yl]ethyl}-N-[(2R)-3,3,3-trifluoro-2-methylpropyl]benzamide] the Ki was 1020 pM.
For C[C@]12Cc3cnn(-c4ccc(F)cc4)c3C=C1CC[C@@]2(O)CCc1ccccc1C(=O)N1CCCCC1 [Example 46, (4αS,5R)-1-(4-fluorophenyl)-4α-methyl-5-{2-[2-(piperidin-1-ylcarbonyl)phenyl]ethyl}-1,4,4α,5,6,7-hexahydrocyclopenta[f]indazol-5-ol], the Ki was 3020 pM.
With C[C@]12Cc3cnn(-c4ccc(F)cc4)c3C=C1CC[C@@]2(O)CCc1ccccc1C(=O)N1CCCC1 [Example 47, (4αS,5R)-1-(4-fluorophenyl)-4α-methyl-5-{2-[2-(pyrrolidin-1-ylcarbonyl)phenyl]ethyl}-1,4,4α,5,6,7-hexahydrocyclopenta[f]indazol-5-ol] the Ki was 11500 pM.
CC(C)[C@@H](C)NC(=O)c1c(F)cccc1CC[C@]1(O)CCC2=Cc3c(cnn3-c3ccc(F)cc3)C[C@@]21C [Example 48, N-[(1R)-1,2-dimethylpropyl]-2-fluoro-6-{2-[(4αS,5R)-1-(4-fluorophenyl)-5-hydroxy-4α-methyl-1,4,4α,5,6,7-hexahydrocyclopenta[f]indazol-5-yl]ethyl}benzamide] was tested, and the Ki was 1200 pM.
Work on CCCNC(=O)c1c(F)cccc1CC[C@]1(O)CCC2=Cc3c(cnn3-c3ccc(F)cc3)C[C@@]21C [Example 49, 2-fluoro-6-{2-[(4αS,5R)-1-(4-fluorophenyl)-5-hydroxy-4α-methyl-1,4,4α,5,6,7-hexahydrocyclopenta[f]indazol-5-yl]ethyl}-N-propylbenzamide] yielded a Ki of 810 pM.
With CCNC(=O)c1ccccc1CC[C@]1(O)CCC2=Cc3c(cnn3-c3ccc(F)c(F)c3)C[C@@]21C [Example 51, 2-{2-[(4αS,5R)-1-(3,4-difluorophenyl)-5-hydroxy-4α-methyl-1,4,4α,5,6,7-hexahydrocyclopenta[f]indazol-5-yl]ethyl}-N-ethylbenzamide] the Ki was 7050 pM.
COC(=O)C(C)(C)NC(=O)c1ccccc1CC[C@]1(O)CCC2=Cc3c(cnn3-c3ccc(F)cc3)C[C@@]21C [Example 52, methyl N-(2-{2-[(4αS,5R)-1-(4-fluorophenyl)-5-hydroxy-4α-methyl-1,4,4α,5,6,7-hexahydrocyclopenta[f]indazol-5-yl]ethyl}benzoyl)-2-methylalaninate] was tested, and the Ki was 800 pM.
CC(C)(C)CNC(=O)c1c(F)cccc1CC[C@]1(O)CCC2=Cc3c(cnn3-c3ccc(F)cc3)C[C@@]21C [Example 55, N-(2,2-dimethylpropyl)-2-fluoro-6-{2-[(4αS,5R)-1-(4-fluorophenyl)-5-hydroxy-4α-methyl-1,4,4α,5,6,7-hexahydrocyclopenta[f]indazol-5-yl]ethyl}benzamide] gave a Ki of 920 pM.
C=CCNC(=O)c1c(F)cccc1CC[C@]1(O)CCC2=Cc3c(cnn3-c3ccc(F)cc3)C[C@@]21C [Example 57, N-allyl-2-fluoro-6-{2-[(4αS,5R)-1-(4-fluorophenyl)-5-hydroxy-4α-methyl-1,4,4α,5,6,7-hexahydrocyclopenta[f]indazol-5-yl]ethyl}benzamide] showed a Ki of 610 pM.

Same assay, conditions: Table 2; prior-art comparison compounds
C[C@]12Cc3cnn(-c4ccc(F)cc4)c3C=C1CC[C@@]2(O)CCc1ccccc1Cl [Example 40 WO 2004/075840 A2, reference compound] showed a Ki of 20700 pM.
For C[C@]12Cc3cnn(-c4ccc(F)cc4)c3C=C1CCC[C@@]2(O)CCc1ccccc1Cl [Example 41 WO 2004/075840 A2, reference compound], the Ki was 320 pM.
C[C@]12Cc3cnn(-c4ccc(F)cc4)c3C=C1CC[C@@]2(O)CCc1ccc(F)cc1 [Example 46 WO 2004/075840 A2, reference compound] showed a Ki of 1000 pM.
COc1ccccc1CC[C@]1(O)CCC2=Cc3c(cnn3-c3ccc(F)cc3)C[C@@]21C [Example 58 WO 2004/075840 A2, reference compound] showed a Ki of 280 pM.
